The target in one assay is JAK1 (Homo sapiens (Human), UniProt P23458). Description: Jak Biochemical HTRF Assay (JAK1). How it is done: (§1) Jak Biochemical HTRF Assay Protocol
(§2) The ability of compounds to inhibit the activity of JAK1, JAK2, JAK3, and Tyk2 was measured using a recombinant purified GST-tagged catalytic domain for each enzyme (Invitrogen JAK1 #M4290, JAK2 #M4290, JAK3 #M4290, Tyk2 #M4290) in an HTRF format biochemical assay. […] The basic assay protocol is as follows: First, 250 nL of diluted compounds in DMSO were dispensed into the wells of a dry 384-well Black plate (Greiner #781076) using a Labcyte Echo 555 acoustic dispenser. Subsequent reagent additions employed an Agilent Bravo. Next, 18 μL of 1.11× enzyme and 1.11× substrate in 1× assay buffer (Invitrogen kinase buffer # PV3189, 2 mM DTT, 0.05% BSA) were added to the wells and shaken and then preincubated for 30 minutes at room temperature to allow compound binding to equilibrate. After equilibration, 2 μL of 10×ATP in 1× assay buffer was added to initiate the kinase reaction and the plates were shaken and then incubated at room temperature for 120 minutes. At the end of the incubation, 20 μL of 2× stop buffer (streptavidin-Dylight 650 (Thermo #84547B/100 mL), Eu-tagged pY20 antibody (Perkin Elmer #AD0067), EDTA, HEPES, and Triton) was added to quench the reaction. Plates were shaken and centrifuged and then incubated 60 minutes at room temperature and then read on a Perkin Elmer Envision (Xex=337 nm, λem=665 and 615 nm, TRF delay time=20 μs). HTRF signal=10,000*665 nm reading/615 nm reading. After normalization to untreated controls, the percent inhibition of the HTRF signal at each compound concentration was calculated. The plot of percent inhibition versus the log of compound concentration was fit with a 4-parameter dose response equation to calculate IC50 values.

Another assay deals with JAK2 (Homo sapiens (Human), UniProt O60674). Put plainly: Jak Biochemical HTRF Assay (JAK2). Particulars: recombinant purified GST-tagged catalytic domain, [ATP] 8.5 μM, [E] 0.052 nM. The method, then:
as §1, §2

Setting [1] is: recombinant purified GST-tagged catalytic domain, HTRF, [ATP] 31.8 μM, [E] 1.405 nM.

Where two headings read alike, the source gives them in different places.

The values that follow come from patent US10072025B2, “Ethyl N-boc piperidinyl pyrazolo pyridones as Janus kinase inhibitors” (Merck Sharp & Dohme Corp., priority 2014, dated 2018).

Chain of JAK1 (P23458 875-1153): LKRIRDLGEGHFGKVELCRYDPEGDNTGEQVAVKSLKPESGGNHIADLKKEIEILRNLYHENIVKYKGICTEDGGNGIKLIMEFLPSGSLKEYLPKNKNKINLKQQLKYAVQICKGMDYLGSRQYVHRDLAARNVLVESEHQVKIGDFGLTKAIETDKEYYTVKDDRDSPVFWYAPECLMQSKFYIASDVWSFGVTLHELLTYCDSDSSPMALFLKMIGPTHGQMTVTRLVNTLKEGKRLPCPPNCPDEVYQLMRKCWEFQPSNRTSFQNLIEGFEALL
Chain of JAK2 (O60674 849-1124): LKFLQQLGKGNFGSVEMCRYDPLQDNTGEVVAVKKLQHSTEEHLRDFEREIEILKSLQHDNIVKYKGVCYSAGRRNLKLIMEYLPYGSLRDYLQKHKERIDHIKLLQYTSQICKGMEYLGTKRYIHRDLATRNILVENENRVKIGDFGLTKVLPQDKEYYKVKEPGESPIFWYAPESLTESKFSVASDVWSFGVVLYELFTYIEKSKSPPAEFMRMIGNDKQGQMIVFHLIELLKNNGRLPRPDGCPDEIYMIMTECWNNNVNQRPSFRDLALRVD

Broadly, the IC50 is the concentration that inhibits the measured activity by half. In the case of `CCC1(n2nc(Nc3ccc(C(=O)N4C[C@H]5C[C@@H]4CO5)c(C)c3)c3c(=O)[nH]ccc32)CCN(C(=O)OC(C)(C)C)CC1` [Example 2-15, tert-butyl 4-(3-((4-((1R,4R)-2-oxa-5-azabicyclo[2.2.1]heptane-5-carbonyl)-3-methylphenyl)amino)-4-oxo-4,5-dihydro-1H-pyrazolo[4,3-c]pyridin-1-yl)-4-ethylpiperidine-1-carboxylate], the IC50 at JAK1 (setting [1]) amounted to 0.4 nM; at JAK2, 0.43 nM.
For `CCC1(n2nc(Nc3ccc(C(O)C(F)(F)F)cc3)c3c(=O)[nH]ccc32)CCN(C(=O)OC(C)(C)C)CC1` (centres unmarked) [Example 2-43, tert-butyl 4-ethyl-4-(4-oxo-3-((4-(2,2,2-trifluoro-1-hydroxyethyl)phenyl)amino)-4,5-dihydro-1H-pyrazolo[4,3-c]pyridin-1-yl) piperidine-1-carboxylate], in that order: 0.9 nM and 2.91 nM.
With `CCC1(n2nc(Nc3ccc(C(=O)N4CCOCC(C)C4)c(C)c3)c3c(=O)[nH]ccc32)CCN(C(=O)OC(C)(C)C)CC1` (single isomer, unassigned) [Example 3-20, tert-butyl 4-ethyl-4-[3-({3-methyl-4-[(6R or 6S-methyl-1,4-oxazepan-4-yl)carbonyl]phenyl}amino)-4-oxo-4,5-dihydro-1H-pyrazolo[4,3-c]pyridin-1-yl] piperidine-1-carboxylate], the IC50 stood at 0.99 nM at JAK1 (setting [1]) and 0.53 nM at JAK2.
For the compound `CCC1(n2nc(Nc3ccc(C(=O)N4C5CCC4COC5)c(C)c3)c3c(=O)[nH]ccc32)CCN(C(=O)OC(C)(C)C)CC1` [Example 2-13, tert-butyl 4-(3-((4-(3-oxa-8-azabicyclo [3.2.1]octane-8-carbonyl)-3-methylphenyl)amino)-4-oxo-4,5-dihydro-1H-pyrazolo[4,3-c]pyridin-1-yl)-4-ethylpiperidine-1-carboxylate], the results for the IC50 on JAK1 and on JAK2 were 0.52 nM and 0.54 nM, respectively.
As for `CCC1(n2nc(Nc3ccc(C(=O)N4CCCSCC4)c(C)c3)c3c(=O)[nH]ccc32)CCN(C(=O)OC(C)(C)C)CC1` [Example 3-9, tert-butyl 4-ethyl-4-(3-{[3-methyl-4-(1,4-thiazepan-4-ylcarbonyl)phenyl]amino}-4-oxo-4,5-dihydro-1H-pyrazolo[4,3-c]pyridin-1-yl) piperidine-1-carboxylate], the IC50 at JAK1 (setting [1]) is 0.79 nM; on JAK2, 1.05 nM.
For `CCC1(n2nc(Nc3ccc(C(C)(O)C(F)(F)F)cc3)c3c(=O)[nH]ccc32)CCN(C(=O)OC(C)(C)C)CC1` (centres unmarked) [Example 2-42, tert-butyl 4-ethyl-4-(4-oxo-3-((4-(1,1,1-trifluoro-2-hydroxypropan-2-yl)phenyl)amino)-4,5-dihydro-1H-pyrazolo[4,3-c]pyridin-1-yl) piperidine-1-carboxylate] the same measures were 1.65 nM and 4.62 nM.
For `CCC1(n2nc(Nc3ccc(C(=O)N4C[C@H](C)O[C@@H](C)C4)c(C)c3)c3c(=O)[nH]ccc32)CCN(C(=O)OC(C)(C)C)CC1` [Example 3-7, tert-butyl 4-{3-[(4-{[(2S,6S)-2,6-dimethylmorpholin-4-yl]carbonyl}-3-methylphenyl)amino]-4-oxo-4,5-dihydro-1H-pyrazolo[4,3-c]pyridin-1-yl}-4-ethylpiperidine-1-carboxylate] the same measures were 0.52 nM and 0.63 nM.
For `CCC1(n2nc(Nc3ccc(C(=O)N4C[C@@H]5C[C@H]4CO5)c(C)c3)c3c(=O)[nH]ccc32)CCN(C(=O)OC(C)(C)C)CC1` [Example 2-22, tert-butyl 4-(3-(4-((1S,4S)-5-oxa-2-aza-bicyclo[2.2.1]heptane-2-carbonyl)-3-methylphenylamino)-4-oxo-4,5-dihydropyrazolo[4,3-c]pyridin-1-yl)-4-ethylpiperidine-1-carboxylate], in that order: 0.36 nM and 0.44 nM.
Regarding `CCC1(n2nc(Nc3ccnc(F)c3)c3c(=O)[nH]ccc32)CCN(C(=O)OC(C)(C)C)CC1` [Example 2-40, tert-butyl 4-ethyl-4-(3-(2-fluoropyridin-4-ylamino)-4-oxo-4,5-dihydropyrazolo[4,3-c]pyridin-1-yl) piperidine-1-carboxylate], the IC50 on JAK1 (setting [1]) turned out to be 0.38 nM; at JAK2, 5.24 nM.
For `CCC1(n2nc(Nc3ccc(C(=O)N4CC5CCC(C4)O5)c(C)c3)c3c(=O)[nH]ccc32)CCN(C(=O)OC(C)(C)C)CC1` [Example 2-1, tert-butyl 4-(3-((4-(8-oxa-3-azabicyclo[3.2.1]octane-3-carbonyl)-3-methylphenyl)amino)-4-oxo-4,5-dihydro-1H-pyrazolo[4,3-c]pyridin-1-yl)-4-ethylpiperidine-1-carboxylate], in that order: 0.47 nM and 0.49 nM.
For `CCC1(n2nc(Nc3ccc(C(=O)N4CCOCC4)c(C)c3)c3c(=O)[nH]ccc32)CCN(C(=O)OC(C)(C)C)CC1` [Example 2-9, tert-butyl 4-ethyl-4-(3-((3-methyl-4-(morpholine-4-carbonyl)phenyl)amino)-4-oxo-4,5-dihydro-1H-pyrazolo[4,3-c]pyridin-1-yl) piperidine-1-carboxylate], the values for the IC50 on JAK1 (setting [1]) and at JAK2 were 0.37 nM and 0.47 nM, respectively.
In the case of `CCC1(n2nc(Nc3ccc(C(=O)N4CCOCC4)c(F)c3)c3c(=O)[nH]ccc32)CCN(C(=O)OC(C)(C)C)CC1` [Example 2-12, tert-butyl 4-ethyl-4-(3-((3-fluoro-4-(morpholine-4-carbonyl)phenyl)amino)-4-oxo-4,5-dihydro-1H-pyrazolo[4,3-c]pyridin-1-yl) piperidine-1-carboxylate], the IC50 was found to be 0.56 nM on JAK1 (setting [1]) and 0.74 nM at JAK2.
For `CCC1(n2nc(Nc3ccc(C(=O)O)c(C)c3)c3c(=O)[nH]ccc32)CCN(C(=O)OC(C)(C)C)CC1` [Example 2-44, 4-((1-(1-(tert-butoxycarbonyl)-4-ethylpiperidin-4-yl)-4-oxo-4,5-dihydro-1H-pyrazolo [4,3-c]pyridin-3-yl)amino)-2-methylbenzoic acid], in that order: 0.23 nM and 2.1 nM.
As for `CCC1(n2nc(Nc3ccc(S(=O)(=O)N(C)C)cc3)c3c(=O)[nH]ccc32)CCN(C(=O)OC(C)(C)C)CC1` [Example 1-1, tert-butyl 4-(3-(4-(N,N-dimethylsulfamoyl)phenylamino)-4-oxo-4,5-dihydropyrazolo[4,3-c]pyridin-1-yl)-4-ethylpiperidine-1-carboxylate], the IC50 is 0.2 nM at JAK1 (setting [1]) and 0.4 nM on JAK2.
For `CCC1(n2nc(Nc3ccc(S(C)(=O)=O)cc3)c3c(=O)[nH]ccc32)CCN(C(=O)OC(C)(C)C)CC1` [Example 1-3, tert-butyl 4-ethyl-4-(3-(4-(methylsulfonyl)phenyl-amino)-4-oxo-4,5-dihydropyrazolo[4,3-c]pyridin-1-yl)piperidine-1-carboxylate] the same measures were 0.12 nM and 0.64 nM.
Regarding `CCC1(n2nc(Nc3ccc(C(=O)N4CC5(COC5)C4)c(C)c3)c3c(=O)[nH]ccc32)CCN(C(=O)OC(C)(C)C)CC1` [Example 2-14, tert-butyl 4-ethyl-4-(3-((3-methyl-4-(2-oxa-6-azaspiro[3.3]heptane-6-carbonyl)phenyl)amino)-4-oxo-4,5-dihydro-1H-pyrazolo [4,3-c]pyridin-1-yl) piperidine-1-carboxylate], the values for the IC50 on JAK1 (setting [1]) and on JAK2 were 0.3 nM and 0.43 nM, respectively.
For `CCC1(n2nc(Nc3ccc(C(=O)N4CCOC5(CCCC5)C4)c(C)c3)c3c(=O)[nH]ccc32)CCN(C(=O)OC(C)(C)C)CC1` [Example 3-3, tert-butyl 4-ethyl-4-(3-{[3-methyl-4-(6-oxa-9-azaspiro[4.5]dec-9-ylcarbonyl)phenyl]amino}-4-oxo-4,5-dihydro-1H-pyrazolo[4,3-c]pyridin-1-yl) piperidine-1-carboxylate], in that order: 0.99 nM and 1.53 nM.
In the case of `CCC1(n2nc(Nc3ccc(C(=O)N4C[C@H]5C[C@@H](C4)O5)c(C)c3)c3c(=O)[nH]ccc32)CCN(C(=O)OC(C)(C)C)CC1` [Example 3-6, tert-butyl 4-ethyl-4-[3-({3-methyl-4-[(1R,5S)-6-oxa-3-azabicyclo[3.1.1]hept-3-ylcarbonyl]phenyl}amino)-4-oxo-4,5-dihydro-1H-pyrazolo[4,3-c]pyridin-1-yl]piperidine-1-carboxylate], the IC50 worked out at 0.3 nM at JAK1 and 0.43 nM at JAK2.
Turning to `CCC1(n2nc(Nc3ccc(C(=O)N4CCOC(C)(C)C4)c(C)c3)c3c(=O)[nH]ccc32)CCN(C(=O)OC(C)(C)C)CC1` [Example 3-2, tert-butyl 4-[3-({4-[(2,2-dimethylmorpholin-4-yl)carbonyl]-3-methylphenyl}amino)-4-oxo-4,5-dihydro-1H-pyrazolo[4,3-c]pyridin-1-yl]-4-ethylpiperidine-1-carboxylate], the IC50 at JAK1 (setting [1]) was found to be 0.61 nM; on JAK2, 0.75 nM.
